Test results reported in a melting point compilation (Tetko et al.; mined from patent text by program, amines drawn as free bases though some values may be those of a salt).

| SMILES | melting point [°C] |
| --- | --- |
| C1=Cn2ccnc2Cc2ccccc21 | 85.5 |
| CNc1nc(CC(=O)Nc2cccc(C(F)(F)F)c2)cs1 | 153 to 155 |
| CCCNC(=O)c1ccccc1 | 87.6 to 88.9 |
| Cc1cc(C)nc(NC(=O)Cc2ccsc2Br)c1 | 72 |
| O=c1[nH]c2cc(Cl)ccc2n(CCO)c1=O | 295 |
| Cn1c(N2CC3CC2CN3C(=O)OC(C)(C)C)nc(-c2ccncn2)cc1=O (stereo unspecified) | 198 to 200 |
| O=P(O)(O)C(Cc1cnsn1)P(=O)(O)O | > 300 |
| COc1cc(C(=O)NC2CCC(N(C)C)CC2)ccc1Nc1ncc2c(n1)N(C1CCCCC1)CC(F)(F)C(=O)N2C (stereo unspecified) | 208 to 214 |
| N=C(N)c1ccc2cc(OC(=O)CC3CCCCC3)ccc2c1 | 203 to 205 |
| C=CCN1C(=O)C2CC2(c2ccc(N)cc2)C1=O (stereo unspecified) | 104 to 106 |
| CSc1nc(O)nn1-c1ccccc1 | 176 to 177 |
| CC1(C)COC(c2ccc(S)cc2)OC1 | 134 to 136 |
| CCCCCCCCCCCCOC(=O)c1ccc(O)c(N)c1 | 86 to 89 |
| O=C(O)c1c[nH]c2cc(Cl)c([N+](=O)[O-])cc2c1=O | 294 to 297 |
| CCN(CC)CC#CCCC(=O)C(O)(c1ccccc1)C1CCCCC1 (stereo unspecified) | 112 to 115 |
| Cn1ncnc1COc1nn2c(C3CC3)nncc2c1-c1ccccc1F | 97 to 99 |
| CS(=O)(=O)NCCCCC(c1cc(F)ccc1F)S(=O)(=O)c1ccc(Cl)cc1 (stereo unspecified) | 106 to 107 |
| O=C1NC(=O)C2(CC(Br)c3ccccc32)N1 (stereo unspecified) | 58 to 65 |
| O=C(NNC(=O)c1cccc([N+](=O)[O-])c1)c1cccc([N+](=O)[O-])c1 | 245 |
| Cc1c(Cl)c(=O)n(-c2cc(C(=O)OC(C)C)c(Cl)cc2F)c(=O)n1C | 150 to 153 |
| CC12CCc3ccccc3C1=NNC(=O)C2 (stereo unspecified) | 189 to 190 |

| SMILES | melting point [°C] |
| --- | --- |
| N#Cc1ccc(-c2ccc3c(c2)C2(CCCCC2)C(=O)N3)cc1F | 258 to 260 |
| CC(=O)Nc1ccc(C2CN(C)Cc3c(Cl)cc(Cl)cc32)cc1 (stereo unspecified) | 205 to 206 |
| O=[N+]([O-])c1ccc(Oc2ccc(C3(c4ccc(Oc5ccc([N+](=O)[O-])c(O)c5)cc4)C4CC5CC(C4)CC3C5)cc2)cc1O | 248 to 250 |
| Cc1ccc(-c2ccc3c(c2)C=C(C(=O)Nc2ccc(CNC(CO)CO)cc2)CC3)cc1 | 189 to 193 |
| CS(=O)(=O)Nc1cc(C(O)CNC2CCN(c3ccc(C=C4SC(=O)NC4=O)cc3Br)CC2)ccc1O (stereo unspecified) | > 200 |
| COC(=O)CCCC(C)(C)c1cc(O)c(C(C)(C)C)cc1O | 136 to 139 |
| CN1CCN(c2cccc3c2C[C@H](NC(=O)c2ccc(C(F)(F)F)cc2C(F)(F)F)CO3)CC1 | 202 to 203 |
| Cc1cc(C)nc(OC(C)C(=O)O)n1 (stereo unspecified) | 117 |
| CN(C)C=Nc1sc(C=O)c(S(=O)(=O)c2ccccc2)c1C#N | 262 |
| CNC(=O)CS(=O)(=O)c1ccccc1 | 106 to 109 |
| CCOC(=O)CN1C(=O)CSC1=Nc1cc(-n2c(=O)cc(C(F)(F)F)n(C)c2=O)c(F)cc1Cl | 67 to 87 |
| O=[N+]([O-])c1cccc(/C=C/c2csc(C3CCC3)n2)c1 | 112 to 115 |
| CCC(=O)Nc1ccc(C(=O)CC)cc1 | 154 to 155 |
| CC1(C)c2ccccc2-c2ccc(C3c4ccc(-c5ccc(-c6ccc(C=C(C#N)C(=O)O)s6)s5)c5c4C(CCC5)N3c3ccccc3)cc21 (stereo unspecified) | 251 |
| O=C(Nc1cc(Cl)ccc1O)Nc1cc(C(F)(F)F)ccc1Cl | 172 to 173 |
| COC(=O)c1c(OCC#N)c2cc(OC)ccc2n1C | 136 to 137 |
| CCOC(=O)C1=C(C)NC(C)=C(C(=O)OCC)C1c1ncccc1O | 238 to 239 |
| C=CC12CCc3cc(NS(=O)(=O)O)ccc3C1CCC1(C)C(O)CCC12 (stereo unspecified) | 82 to 86 |
| C=C(CC(=O)Nc1cc(Cl)cc(Cl)c1)C(=O)O | 185 |
| O=c1ccc2c(Br)nccc2[nH]1 | 272 to 274 |

Now from value to compound:

| melting point [°C] | SMILES |
| --- | --- |
| 202 | CCOc1cc2c(cc1S(=O)(=O)NC(=S)NC)C(CNC(=O)c1cc(Cl)ccc1OC)CCO2 (stereo unspecified) |
| 222 to 234 | COc1ccc(N2C(=O)N(c3ccccc3)c3nc(Nc4ccccc4)ncc3C2C)cc1 (stereo unspecified) |
| 182 to 184 | CN(c1cnc(-c2ccccc2)c(-c2ccccc2)n1)C1CCc2c(OCC(=O)O)cccc21 (stereo unspecified) |
| 109 to 110 | CCc1ccc2c(c1)c1cc(OC)cc3c(=O)c(Cc4cccnc4)cn2c31 |
| 110 to 114 | Cc1nc(-c2sc(-c3ccc(Cl)cc3)nc2C)sc1C(=O)N[C@H](C)[C@](O)(Cn1cncn1)c1ccc(F)cc1F |
| 143 to 144 | COC1(C(O)CN2CCC(n3c(=O)[nH]c4ccccc43)CC2)COc2ccccc2O1 (stereo unspecified) |
| 76 to 77 | CC(=NOCCO)c1ccc(N(C)S(=O)(=O)c2ccccc2)cc1 |
| 245 to 248 | CC(=O)Nc1ccc(-c2ccc3nc(-c4cccnc4N)n(-c4ccc(CN)cc4)c3n2)cc1 |
| 208 to 210 | COc1ccc(-c2c(Cl)c(CN3C(=O)CCC3=O)nc3sc4c(c23)CCN(C(C)=O)C4)cc1OC |
| 205 to 206 | COc1ccc(S(=O)(=O)N(C)c2cccc(-c3ccnc4c([N+](=O)[O-])cnn34)c2)cc1 |
| 170 to 172 | Fc1ccc(CNc2nc(OCC(F)(F)F)nc(-c3ccccc3)n2)cc1 |
| 160 to 162 | CCN(CC)CCN1C(=O)Nc2ncccc2C1c1ccccc1 (stereo unspecified) |
| 80 to 81 | CC(C)CN(CC(C)C)c1ccc(C(=O)c2ccccc2)cc1[N+](=O)[O-] |
| 115 to 116 | COC(=O)c1ccc(Cl)cc1C(=O)c1ccccc1F |
| 114 to 115 | CCOc1ccc(-c2nc(CCC(=O)c3ccccc3C#N)cs2)cc1OCC |
| 55 to 56 | OCCCc1nc(-c2ccccc2)co1 |
| 232 to 233 | COC(=O)c1c(C)nc(C)c(C(=O)O)c1-c1ccccc1[N+](=O)[O-] |
| 124 to 125 | Cc1c(-c2ccccc2)oc2c(S(=O)CCCCCl)cccc2c1=O (stereo unspecified) |
| 159 to 162 | CCC(CC)c1ccc(-c2ccco2)c2nc(Oc3ccc(Cl)cc3Br)n(C)c12 |
| 75 | CC(C(=O)OCc1ccccc1)c1cccc(NC(=O)NCC(=O)N2[C@@H](c3ccccc3)CC[C@H]2C(=O)OC(C)(C)C)c1 (stereo partly specified) |
| 297 | NS(=O)(=O)c1cccc(-c2noc(-c3cnc4c(C(F)(F)F)cc(-c5ccc(C(F)(F)F)cc5)cn34)n2)c1 |
| 196 to 198 | CS(=O)(=O)OCCc1c2ccccc2n2c1[nH]c(=O)c1ccccc12 |
| 131 to 135 | O=C(CC(Cc1cccc2ccccc12)C(=O)O)NCCc1ccccc1 (stereo unspecified) |
| 151 to 152 | O=C1NC(c2ccccc2)(c2ccccc2)C(=O)N1COCc1ccccc1 |
| 168 to 169 | CCOC(=O)C1=C(C)NN=C(C(=O)OC)C1c1ccccc1[N+](=O)[O-] (stereo unspecified) |
| 233 to 235 | O=C(Nc1ccccn1)Nc1csc(-c2ccccn2)n1 |
| 187 to 189 | CCOCc1nc2c(N)nc3ccccc3c2n1CCC(=O)N1CCOCC1 |
| 188 to 192 | COC(=O)C1=C(C)NC(C)=C(C(=O)OCCN)C1c1cccc2c(=O)c(C)c(-c3ccccc3)oc12 (stereo unspecified) |

| melting point [°C] | SMILES |
| --- | --- |
| 180 to 182 | O=[N+]([O-])c1cccc2c1ncn2-c1cccc(Br)c1 |
| 225 to 227 | CC(=O)n1cc(C2C(=O)CC(C)(C)CC2=O)c2ccccc21 |
| 216 to 217 | CC(=O)Nc1nc(-c2ccco2)c(C(=O)c2ccccn2)s1 |
| 130 to 131 | CC(C)Cn1c(C(=O)O)c(OCCCC(F)(F)F)c2cc(OCc3ccccc3)ccc2c1=O |
| 66 to 68 | O=Cc1cccc2oc3ccccc3c12 |
| 119 to 120 | CCCCCC(=O)Nc1ccnc(-c2ccncc2)n1 |
| 142 | CC(C)C(NC(=O)OCc1ccccc1)C(=O)NC(Cc1ccc(OCCN2CCOCC2)cc1)C(=O)C(F)(F)C(=O)NCc1ccccc1 (stereo unspecified) |
| 106 to 108 | CCCc1c(OCCCSc2nc3ccc(C(=O)O)cc3[nH]2)ccc(C(C)=O)c1O |
| 143 to 144 | O=C(O)CCCCc1cc2ccccc2n1-c1cccnc1 |
| 212 to 214 | c1ccc(CCN2CCN(c3n[nH]c4c3Cc3ccccc3-4)CC2)cc1 |
| 205 to 211 | COc1ccc(COCc2nc(C(C)C)c(Sc3cc(Cl)cc(Cl)c3)n2CC(=O)c2ccccc2)cc1 |
| 199 to 200 | CN1C(=O)CC[C@]2(C)c3ccc(Sc4ccc(-c5ccccc5)nn4)cc3CC[C@@H]12 |
| 247 to 249 | CCOC(=O)c1cn(-c2ccc(F)cc2)c2cc(C#C[Si](C)(C)C)ccc2c1=O |
| 126 to 128 | Cc1cccc(-c2nc(-c3ccc(S(C)(=O)=O)cc3)sc2-c2ccnc(S(=O)(=O)c3ccccc3)c2)c1 |
| 132 to 134 | Cc1cc(SCCc2ccc(-c3ccc(C(F)(F)F)cc3)cc2)ccc1OCC(=O)O |
| 169 to 172 | Cc1ccc(-c2noc(C(F)F)c2-c2ccc(S(N)(=O)=O)cc2)cc1 |
| 244 to 246 | Cc1cccc(-c2c3c(cc4ccc5c(c24)OCO5)C(=O)NC3)c1 |
| 119 to 120 | CCCOc1cc(CCCC2OC(=O)NC2=O)ccc1OCc1nc(-c2ccccc2)oc1C (stereo unspecified) |
| 220 to 222 | COc1cc(C2CC(=O)NC(=O)C2)cc2c(C)c(C)oc12 |
| 152 to 155 | O=c1oc(Nc2ccccc2F)nc2ccccc12 |
| 160 | COc1c(C)cc(C(=O)c2cc(-c3ccc(Cl)cc3)c(N3CCOCC3)s2)nc1C |
| 237 | COc1ccccc1-n1c(C(S)c2ncnc3[nH]cnc23)nc2cccc(Cl)c2c1=O (stereo unspecified) |
| 156 to 157 | O=C(Nc1ccc(OCCN2CCOCC2)c2ccccc12)NC1CC1c1ccccc1 (stereo unspecified) |
| 183 to 184 | Cc1nc(Cc2ccc(NC(=O)/C=C/c3cnn(C)c3-c3ccc(F)cc3)cc2)no1 |
| 206 to 207 | COc1ccc(-c2nc(Cn3cncn3)nc3cc(OC)c(OC)cc23)cc1 |
| 201 to 203 | COc1cccc(-c2nc(NC(=O)Nc3ccccn3)cs2)c1 |
| 103 | O=C(c1cc(=O)c2cc(O)ccc2[nH]1)N1CCC(OCc2ccccc2)CC1 |
